Test results published in patent US20050148633A1 (priority 2003, published 2005).

These molecules were tested on IL-2 production (assay: Inhibition of IL-2 production in PHA-activated Jurkat cells (ELISA)). Settings: Homo sapiens, PHA 2.5 μg/mL, 20 hours, value bins.
Assay type: cell-based
Experimental: Jurkat cells were placed in a 96 well plate (0.5 million cells per well in 1% FBS medium) then test compounds of this invention were added at different concentrations. After 10 minutes, the cells were activated with PHA (final concentration 2.5 μg/mL) and incubated for 20 hours at 37° C. under CO2. The final volume was 200 μL. Following incubation, the cells were centrifuged and the supernatants collected and stored at −70° C. prior to assaying for IL-2 production. A commercial ELISA kit (IL-2 Eli-pair, Diaclone Research, Besancon, France) was used to detect production of IL-2, from which dose response curves were obtained. The IC50 value was calculated as the concentration at which 50% of maximum IL-2 production after stimulation was inhibited versus a non-stimulation control.

IC50 [nM] | Structure (SMILES)
< 100 | CCOc1ccc(Cl)cc1-c1ccc(NC(=O)c2ccncc2C)cc1 [Compound 82, 3-methyl-pyridine-4-carboxylic acid (2′-ethoxy-5′-chlorobiphenyl-4-yl)-amide]
< 100 | CCc1ccc(CC)c(-c2ccc(NC(=O)c3ccncc3C)cc2)c1 [Compound 79, 3-methyl-pyridine-4-carboxylic acid (2′,5′-diethylbiphenyl-4-yl)-amide]
< 100 | COc1ccc(OC)c(-c2ccc(NC(=O)c3ccncc3C)cc2)c1 [Compound 63, 3-methyl-pyridine-4-carboxylic acid (2′,5′-dimethoxy-biphenyl-4-yl)-amide]
100 to 500 | Cn1cncc1C(=O)Nc1ccc(-c2cc(C(F)(F)F)ccc2C(F)(F)F)cc1 [Compound 62, 1-methyl-1H-imidazole-5-carboxylic acid (2′,5′-bis-trifluoromethyl-biphenyl-4-yl)-amide]
< 100 | Cc1ccc(C(F)(F)F)c(-c2ccc(NC(=O)c3c(F)cccc3F)cc2)c1 [Compound 126, N-(2′-trifluoromethyl-5′-methyl-biphenyl-4-yl)-2,6-difluoro-benzamide]
< 100 | O=C(Nc1ccc(-c2c(C(F)(F)F)cc3ccccn23)cc1)c1cccc(F)c1F [Compound 21, 2,3-Difluoro-N-[4-(2-trifluoromethyl-indolizin-3-yl)-phenyl]-benzamide]
< 100 | COc1ccc(Cl)cc1-c1ccc(NC(=O)c2ccncc2C)cc1 [Compound 65, 3-methyl-pyridine-4-carboxylic acid (2′-methoxy-5′-chlorobiphenyl-4-yl)-amide]
100 to 500 | Cc1cc2ccccn2c1-c1ccc(NC(=O)c2snnc2C)cc1 [Compound 91, 4-methyl-N-[4-(2-methyl-indolizin-3-yl)-phenyl]-[1,2,3]thiadiazole 5-carboxylic acid amide]
< 100 | Cc1ccc(C)c(-c2ccc(NC(=O)c3c(F)cccc3F)cc2)c1 [Compound 87, N-(2′,5′-dimethylbiphenyl-4-yl)-2,6-difluorobenzamide]
100 to 500 | Cc1ccsc1C(=O)Nc1ccc(-n2c(C(F)(F)F)nnc2C(F)(F)F)cc1 [Compound 34, 3-Methyl-thiophene-2-carboxylic acid-(4-(3,5-bis-trifluoromethyl-[1,2,4]triazol-4-yl)-phenyl)-amide]
< 100 | O=C(Nc1ccc(-c2cc(C(F)(F)F)ccc2C(F)(F)F)cc1)c1c(F)cccc1F [Compound 85, N-(2′,5′-bis-trifluoromethylbiphenyl-4-yl)-2,6-difluorobenzamide]
100 to 500 | Cc1ccc(C)c(-c2ccc(NC(=O)c3ccncc3C)cc2)c1 [Compound 70, 3-methyl-pyridine-4-carboxylic acid (2′,5′-dimethylbiphenyl-4-yl)-amide]
< 100 | COc1ccc(C(C)=O)cc1-c1ccc(NC(=O)c2cccc(F)c2F)cc1 [Compound 50, N-(2′-methoxy-5′-acetyl-biphenyl-4-yl)-2,3-difluorobenzamide]
< 100 | Cc1cnccc1C(=O)Nc1ccc(-c2cc(C(F)(F)F)ccc2Cl)cc1 [Compound 74, 3-methyl-pyridine-4-carboxylic acid (2′-chloro-5′-trifluoromethylbiphenyl-4-yl)-amide]
100 to 500 | Cc1ncccc1C(=O)Nc1ccc(-c2cc(C(F)(F)F)ccc2C(F)(F)F)cc1 [Compound 60, 2-methyl-pyridine-3-carboxylic acid (2′,5′-bis-trifluoromethyl-biphenyl-4-yl)-amide]
< 100 | O=C(Nc1ccc(-c2cc(C(F)(F)F)ccc2Cl)cc1)c1c(F)cccc1F [Compound 86, N-(2′-chloro-5′-trifluoromethylbiphenyl-4-yl)-2,6-difluorobenzamide]
100 to 500 | O=C(Nc1ccc(-c2ccccc2C(F)(F)F)cc1)c1ccncc1 [Compound 8, N-(2′-Trifluoromethyl-biphenyl-4-yl)-isonicotinamide]
< 100 | O=C(Nc1ccc(-c2cc(Cl)ccc2OC(F)F)cc1)c1ccncc1F [Compound 72, 3-fluoro-pyridine-4-carboxylic acid (2′-difluoromethoxy-5′-chlorobiphenyl-4-yl)-amide]
100 to 500 | Cc1cc(C(=O)Nc2ccc(-c3cc(C(F)(F)F)ccc3C(F)(F)F)cc2)n(C)n1 [Compound 40, 1,3-Dimethyl-1H-pyrazol-5-carboxylic acid (2′,5′-bis-trifluoromethyl-biphenyl-4-yl)-amide]
< 100 | COc1ccc(Cl)cc1-c1ccc(NCc2c(F)cccc2F)cc1 [Compound 129, N-(2′-methoxy-5′-chloro-biphenyl-4-yl)-2,6-difluoro-benzyl amine]
< 100 | Cc1ccc(C)c(-c2ccc(NC(=O)c3cccc(F)c3F)cc2)c1 [Compound 47, N-(2′,5′-dimethyl-biphenyl-4-yl)-2,3-difluorobenzamide]
< 100 | O=C(Nc1ccc(-c2cc(C(F)(F)F)ccc2C(F)(F)F)cc1)c1cc(F)ccc1F [Compound 28, N-(2′,5′-Bis-trifluoromethyl-biphenyl-4-yl)-2,5-difluoro-benzamide]
100 to 500 | O=C(Nc1ccc(-c2ccccc2C(F)(F)F)cc1)c1cc(F)ccc1F [Compound 16, 2,5-Difluoro-N-(2′-trifluoromethyl-biphenyl-4-yl)-benzamide]

Same assay, conditions: Homo sapiens, PHA, bin 500 nM-1 μM

IC50 [nM] | Structure (SMILES)
500 to 1000 | O=C(Nc1ccc(-c2ccccc2C(F)(F)F)cc1)c1cccnc1 [Compound 7, N-(2′-Trifluoromethyl-biphenyl-4-yl)-nicotinamide]
500 to 1000 | O=C(Nc1ccc(-c2cc(C(F)(F)F)ccc2C(F)(F)F)cc1)c1cccc2c1OCCO2 [Compound 61, 2,3-dihydro-benzo[1,4]dioxine-5-carboxylic acid (2′,5′-bis-trifluoromethyl-biphenyl-4-yl)-amide]
500 to 1000 | O=C(Nc1ccc(-c2cccc(C(F)(F)F)c2)cc1)c1ccncc1F [Compound 3, 3-Fluoro-N-(3′-trifluoromethyl-biphenyl-4-yl)-isonicotinamide]
500 to 1000 | O=C(Nc1ccc(-n2c(-c3cccs3)nnc2C(F)(F)F)cc1)c1cccc(F)c1F [Compound 35]

Same assay, conditions: Homo sapiens, PHA, bin >1 μM

IC50 [nM] | Structure (SMILES)
> 1000 | CN(C)C(=O)c1ccccc1-c1ccc(NC(=O)c2cccc(F)c2F)cc1 [Compound 6, 4′-(2,3-Difluoro-benzoylamino)-biphenyl-2-carboxylic acid dimethylamide]
> 1000 | O=C(Nc1ccc(-c2ccccc2C(F)(F)F)cc1)c1ccc(F)cc1 [Compound 10, 4-Fluoro-N-(2′-trifluoromethyl-biphenyl-4-yl)-benzamide]
> 1000 | O=C(Nc1ccc(-c2ccccc2C(F)(F)F)cc1F)c1cccc(F)c1F [Compound 17, 2,3-Difluoro-N-(3-fluoro-2′-trifluoromethyl-biphenyl-4-yl)-benzamide]
> 1000 | CCn1nc(C)cc1C(=O)Nc1ccc(-c2ccccc2C(F)(F)F)cc1 [Compound 14, 2-Ethyl-5-methyl-2H-pyrazole-3-carboxylic acid (2′-trifluoromethyl-biphenyl-4-yl)-amide]
> 1000 | O=C(Nc1ccc(-c2ccccc2C(F)(F)F)cc1)c1cnccn1 [Compound 26, Pyrazine-2-carboxylic acid (2′-trifluoromethyl-biphenyl-4-yl)-amide]
> 1000 | Cc1nc(C)c(C(=O)Nc2ccc(-c3ccccc3C(F)(F)F)cc2)s1 [Compound 11, 2,4-Dimethyl-thiazole-5-carboxylic acid (2′-trifluoromethyl-biphenyl-4-yl)-amide]
